Broadly, the Kd is the equilibrium constant for the complex coming apart. A word on the IC50: it is the midpoint of a concentration-inhibition curve. For orientation: Emax means the maximal effect, on the per cent scale that the assay sets. The term EC50 denotes the concentration needed to bring the measured effect to its halfway point.

The values below come from ChEMBL document CHEMBL5126605, “Nucleic-Acid-Based Targeted Degradation in Drug Discovery” (J Med Chem, 2022).

A short description of assay [1]: Binding affinity to 5' Cy5 end-labeled DNA hairpin (unknown origin) incubated for 30 mins in the presence of RNase L by microscale thermophoresis analysis. For orientation: MST reads how a fluorescent partner responds to local heating, with and without ligand.
Assay [2] in a line: Binding affinity to 5' Cy5-labeled Pre-miR-210 RNA (unknown origin) incubated for 30 mins in the presence of RNase L by microscale thermophoresis analysis.
The nature of assay [3]: Selectivity index, ratio of Kd for binding affinity to 5' Cy5-labeled microRNA-210 hairpin precursor (unknown origin) to Kd for binding affinity to 5' Cy5 end-labeled DNA hairpin (unknown origin) incubated for 30 mins in the presence of RNase L by microscale thermophoresis analysis.
In assay [4] the target is T1, Huntingtin (Homo sapiens, UniProt P42858). The assay is described as follows: Inhibition of HTT (unknown origin).
Assay [5] addresses T1, Huntingtin. The assay is described as follows: Induction of human HTT degradation in human SH-SY5Y cells assessed as decrease in HTT-transcript levels at 125 nM. It is filed as cell-based. More on the design: scale not given: the % may be the effect or the level left.
Assay [6] concerns the target T1, Huntingtin. The experiment in a line: Induction of human HTT degradation in human SH-SY5Y cells assessed as decrease in normal HTT protein levels at 125 nM by Western blot analysis. It is filed as cell-based. Also on record: scale not given: the % may be the effect or the level left. On the technique in general: In western blotting, separated proteins are transferred to a membrane and probed.

Assay [7] has as its target T2, von Hippel-Lindau disease tumor suppressor/Bromodomain-containing protein 4 (Homo sapiens, UniProt O60885+P40337). The experiment in a line: PROTAC activity at VHL/BRD4 in human MCF7 cells assessed as BRD4 degradation by measuring maximum efficacy at 50 nM measured after 24 hrs by Western blot analysis relative to control. It is filed as cell-based.
In a further assay the test system is MCF7. The experiment in a line: Antitumor activity human MCF7 cells xenografted in nude mouse assessed as tumor growth inhibition at 10 mg/kg, iv administered every other day for 21 days. Conditions: MCF7, 504 h, time 21 day, read-out: TGI. It is filed as functional. In general terms: A xenograft is tissue or cells of one species grown in another, often human tumour cells in immunodeficient mice.

Assay [8] concerns the target T2, von Hippel-Lindau disease tumor suppressor/Bromodomain-containing protein 4. The experiment in a line: PROTAC activity at VHL/BRD4 in human MCF7 cells assessed as BRD4 degradation measured after 24 hrs by Western blot analysis. It is filed as cell-based.
Assay [9] is described as follows: RIBOTAC activity at Pre-miR-21 RNA/RNase L in human MDA-MB-231 cells assessed as decrease in mature miR-21 levels by RT-qPCR analysis. It is filed as cell-based.
A short description of assay [10]: Binding affinity to Cy5-labeled SARS-CoV-2 Attenuator hairpin RNA incubated for 20 mins by microscale thermophoresis analysis. Also on record: species or system Severe acute respiratory syndrome coronavirus 2.
For assay [11], the system named is MDA-MB-231. The assay is described as follows: RIBOTAC activity at Pre-miR-21 RNA/RNase L in human MDA-MB-231 cells assessed as decrease in mature miR-21 levels at 0.2 uM by RT-qPCR analysis. It is filed as cell-based. Also on record: scale not given: the % may be the effect or the level left.
Assay [12] has as its system MDA-MB-231. The experiment in a line: Potency index, ratio of RIBOTAC activity of test compound to RIBOTAC activity of Dovitinib at Pre-miR-21 RNA/RNase L in human MDA-MB-231 cells assessed as decrease in mature miR-21 levels by RT-qPCR analysis. It is filed as cell-based.
Assay [13] has as its system MDA-MB-231. The experiment in a line: RIBOTAC activity at Pre-miR-21 RNA/RNase L in human MDA-MB-231 cells assessed as decrease in mature miR-21 levels at 5 uM by RT-qPCR analysis. It is filed as cell-based. Also on record: scale not given: the % may be the effect or the level left.

T1 sequence (P42858 whole entry): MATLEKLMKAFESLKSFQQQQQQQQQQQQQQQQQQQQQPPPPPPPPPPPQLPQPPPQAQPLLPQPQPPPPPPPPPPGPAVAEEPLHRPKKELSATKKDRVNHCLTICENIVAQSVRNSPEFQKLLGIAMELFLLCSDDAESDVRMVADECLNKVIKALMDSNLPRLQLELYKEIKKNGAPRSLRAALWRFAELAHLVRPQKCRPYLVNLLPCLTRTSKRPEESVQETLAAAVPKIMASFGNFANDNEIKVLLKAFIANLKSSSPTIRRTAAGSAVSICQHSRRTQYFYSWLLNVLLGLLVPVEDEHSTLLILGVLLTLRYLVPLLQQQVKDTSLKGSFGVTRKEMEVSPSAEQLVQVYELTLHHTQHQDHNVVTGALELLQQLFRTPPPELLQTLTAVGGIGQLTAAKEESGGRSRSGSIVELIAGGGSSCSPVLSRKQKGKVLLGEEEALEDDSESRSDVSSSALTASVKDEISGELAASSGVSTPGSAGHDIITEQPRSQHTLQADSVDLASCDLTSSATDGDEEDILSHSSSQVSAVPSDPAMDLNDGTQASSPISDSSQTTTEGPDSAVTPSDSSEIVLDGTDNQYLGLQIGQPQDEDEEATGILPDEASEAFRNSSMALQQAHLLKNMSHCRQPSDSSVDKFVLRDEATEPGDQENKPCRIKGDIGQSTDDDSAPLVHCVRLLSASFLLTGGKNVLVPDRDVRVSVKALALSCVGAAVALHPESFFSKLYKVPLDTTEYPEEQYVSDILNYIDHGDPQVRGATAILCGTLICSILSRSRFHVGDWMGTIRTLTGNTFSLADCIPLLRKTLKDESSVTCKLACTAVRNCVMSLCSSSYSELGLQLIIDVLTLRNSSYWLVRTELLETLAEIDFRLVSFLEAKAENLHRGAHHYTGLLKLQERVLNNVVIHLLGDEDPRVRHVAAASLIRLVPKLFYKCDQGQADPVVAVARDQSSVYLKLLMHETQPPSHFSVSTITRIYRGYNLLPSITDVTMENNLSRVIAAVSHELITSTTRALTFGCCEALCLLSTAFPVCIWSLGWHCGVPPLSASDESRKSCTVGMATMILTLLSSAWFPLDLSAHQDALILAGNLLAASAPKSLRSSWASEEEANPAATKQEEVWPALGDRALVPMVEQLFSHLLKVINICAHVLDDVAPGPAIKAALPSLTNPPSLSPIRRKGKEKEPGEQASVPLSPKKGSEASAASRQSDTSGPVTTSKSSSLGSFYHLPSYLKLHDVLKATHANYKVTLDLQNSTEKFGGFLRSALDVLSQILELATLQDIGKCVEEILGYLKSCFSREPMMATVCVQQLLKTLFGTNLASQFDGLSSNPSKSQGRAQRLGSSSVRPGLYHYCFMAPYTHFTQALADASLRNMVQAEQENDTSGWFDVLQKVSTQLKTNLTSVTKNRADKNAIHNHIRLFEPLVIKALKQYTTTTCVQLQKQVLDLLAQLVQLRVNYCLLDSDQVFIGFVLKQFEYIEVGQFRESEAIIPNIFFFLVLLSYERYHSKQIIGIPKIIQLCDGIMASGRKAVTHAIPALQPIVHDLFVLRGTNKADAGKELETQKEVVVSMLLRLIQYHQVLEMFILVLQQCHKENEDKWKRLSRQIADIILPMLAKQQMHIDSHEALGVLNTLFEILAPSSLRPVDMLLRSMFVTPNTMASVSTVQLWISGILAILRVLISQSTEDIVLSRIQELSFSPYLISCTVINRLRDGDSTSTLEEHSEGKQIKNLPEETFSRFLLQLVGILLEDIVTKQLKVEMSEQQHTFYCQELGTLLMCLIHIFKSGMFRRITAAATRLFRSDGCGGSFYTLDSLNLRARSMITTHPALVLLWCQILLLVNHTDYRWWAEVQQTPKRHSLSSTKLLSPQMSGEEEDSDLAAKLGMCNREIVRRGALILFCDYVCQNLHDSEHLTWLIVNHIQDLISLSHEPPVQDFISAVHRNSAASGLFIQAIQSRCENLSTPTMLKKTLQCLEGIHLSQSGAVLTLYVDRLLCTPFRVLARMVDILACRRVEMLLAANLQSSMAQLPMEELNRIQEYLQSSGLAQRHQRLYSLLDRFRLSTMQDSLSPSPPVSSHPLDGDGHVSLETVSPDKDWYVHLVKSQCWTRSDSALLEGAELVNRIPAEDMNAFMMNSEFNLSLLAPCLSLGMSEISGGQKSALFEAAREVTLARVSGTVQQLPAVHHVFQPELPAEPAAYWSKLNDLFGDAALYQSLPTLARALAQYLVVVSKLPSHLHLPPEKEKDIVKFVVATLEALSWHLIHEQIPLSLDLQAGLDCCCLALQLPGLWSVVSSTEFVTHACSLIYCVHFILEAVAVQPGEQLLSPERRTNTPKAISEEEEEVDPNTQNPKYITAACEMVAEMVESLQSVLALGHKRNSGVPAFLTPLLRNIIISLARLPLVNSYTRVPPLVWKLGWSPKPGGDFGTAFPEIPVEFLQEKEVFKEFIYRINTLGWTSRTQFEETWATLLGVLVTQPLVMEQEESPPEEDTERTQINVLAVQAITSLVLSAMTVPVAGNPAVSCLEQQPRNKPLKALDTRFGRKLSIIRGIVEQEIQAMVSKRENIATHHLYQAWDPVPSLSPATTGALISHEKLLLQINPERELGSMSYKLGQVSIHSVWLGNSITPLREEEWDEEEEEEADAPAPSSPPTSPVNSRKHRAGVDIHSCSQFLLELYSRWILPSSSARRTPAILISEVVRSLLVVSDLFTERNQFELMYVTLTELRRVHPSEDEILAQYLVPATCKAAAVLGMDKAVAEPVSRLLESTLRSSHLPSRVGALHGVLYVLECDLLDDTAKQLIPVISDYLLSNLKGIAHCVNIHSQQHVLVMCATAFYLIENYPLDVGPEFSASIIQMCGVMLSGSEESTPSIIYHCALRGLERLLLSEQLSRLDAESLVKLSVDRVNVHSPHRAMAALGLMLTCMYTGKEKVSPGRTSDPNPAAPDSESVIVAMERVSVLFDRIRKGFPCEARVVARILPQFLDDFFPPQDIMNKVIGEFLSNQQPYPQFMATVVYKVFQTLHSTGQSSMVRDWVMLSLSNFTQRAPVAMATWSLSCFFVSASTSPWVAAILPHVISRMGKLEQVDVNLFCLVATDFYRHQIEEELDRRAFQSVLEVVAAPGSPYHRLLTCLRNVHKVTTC
T2 sequence (P40337 whole entry, looked up, other chains not shown): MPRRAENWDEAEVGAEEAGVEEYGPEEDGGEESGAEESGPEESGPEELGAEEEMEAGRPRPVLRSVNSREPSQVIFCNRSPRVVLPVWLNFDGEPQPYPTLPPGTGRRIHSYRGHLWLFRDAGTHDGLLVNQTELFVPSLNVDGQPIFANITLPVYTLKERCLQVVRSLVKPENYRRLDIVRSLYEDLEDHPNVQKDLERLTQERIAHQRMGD

Regarding `CN1CCN(c2ccc3nc(-c4ccc5[nH]c(-c6cccc(OCCCC(=O)NCCCN=[N+]=[N-])c6)nc5c4)[nH]c3c2)CC1`, the figures for the dissociation constant Kd in assay [1] and in assay [2] were 620 nM and 160 nM, respectively. Moreover, the Ratio in assay [3] turned out to be 5.

`CCN1CCC(c2cc3c(F)cc(-c4cc(C)c5nc(C)cn5n4)cc3nn2)CC1` yielded an IC50 on Huntingtin [4] of 8 nM.

On to `CC1(C)CC(Oc2ccc(-c3ccc(-c4cn[nH]c4)cc3O)nn2)CC(C)(C)N1`, for which the Activity was found to be 95% at Huntingtin [5] and 53% at Huntingtin [6].

For the compound `Cc1ncsc1-c1ccc([C@H](C)NC(=O)[C@@H]2C[C@@H](O)CN2C(=O)[C@H](NC(=O)COCCOCCOCCNC(=O)C[C@@H]2N=C(c3ccc(Cl)cc3)c3c(sc(C)c3C)-n3c(C)nnc32)C(C)(C)C)cc1`, the Emax in [7] is above 90%. Further, in the assay on MCF7, the inhibition in vivo at 10 mg/kg was 59.8%. For the same compound, the EC50 in [8] is 13 nM.

Consider `CN1CCN(c2ccc3nc(-c4ccc5[nH]c(-c6cccc(OCCCC(=O)NCCCOCC(O)COP(=O)(O)O[C@@H]7[C@H](O)[C@@H](COP(=O)(O)O[C@@H]8[C@H](O)[C@@H](COP(=O)(O)O[C@@H]9[C@H](O)[C@@H](COP(=O)(O)O[C@@H]%10[C@H](O)[C@@H](COP(=O)(O)O)O[C@H]%10n%10cnc%11c(N)ncnc%11%10)O[C@H]9n9cnc%10c(N)ncnc%109)O[C@H]8n8cnc9c(N)ncnc98)O[C@H]7n7cnc8c(N)ncnc87)c6)nc5c4)[nH]c3c2)CC1` (some centres not stated), for which the Kd in assay [2] was 340 nM.

Turning to `CCCN(CC(=O)N(CCC)CC(=O)N(CCC)CC(=O)N(CC(=O)NCCOCCOCCOCCOc1ccc(/C=C2\SC(Nc3ccccc3)=C(C(=O)OCC)C2=O)cc1O)Cc1cn(CCCNC(=O)CCCOc2ccc(-c3nc4ccc(-c5ccc(N6CCN(C)CC6)cc5)cc4[nH]3)cc2)nn1)C(=O)CN(Cc1cn(CCCNC(=O)CCCOc2ccc(-c3nc4cc(-c5ccc(N6CCN(C)CC6)cc5)ccc4[nH]3)cc2)nn1)C(C)=O`, the IC50 in assay [9] came to 50 nM.

For the compound `CNc1nc(Nc2cccc(C(=O)O)c2)nc2ccccc12`, binding in [10] was put at a Kd of 11 nM.

Turning to `CCOC(=O)C1=C(Nc2ccccc2)S/C(=C\c2ccc(OCCOCCOCCOCCNC(=O)NCCN3CCN(c4ccc5nc(-c6c(N)c7c(F)cccc7[nH]c6=O)[nH]c5c4)CC3)c(O)c2)C1=O`, the Activity with MDA-MB-231 [11] is 30%. The Ratio in the assay on MDA-MB-231 [12] turned out to be 5.

`CN1CCN(c2ccc3nc(-c4c(N)c5c(F)cccc5[nH]c4=O)[nH]c3c2)CC1`: in the assay on MDA-MB-231 [13], the Activity is 30%.

On to `CCN1CCC(c2cc(C)c3nc(-c4ccc5nn(C)cc5c4)cc(=O)n3c2)CC1`, for which, on Huntingtin [4], the half-inhibitory concentration (IC50) was 80 nM.

On Huntingtin [4], `CC1(C)CC(Oc2ccc(-c3ccc(-c4ccnc(O)c4)cc3O)nn2)CC(C)(C)N1` displayed a half-maximal inhibitory concentration (IC50) of 40 nM.
